Results reported in PMC4704194, “Structural Basis of Metallo-β-Lactamase Inhibition by Captopril Stereoisomers” (Antimicrobial Agents and Chemotherapy, 2015).
In brackets after ≈: the same amount, converted by molar mass.

Tests used:
[1] = system: E. coli J53 + NDM-1 transconjugant; test: MIC, broth microdilution; assay type: cell-based, Escherichia coli; details: captopril where added at 8 mg/liter
Text: (§1) The bacteria used were nonclonal international isolates whose mechanisms of carbapenem resistance have been defined genetically by sequencing. […] MBL genes were obtained by PCR using standard procedures and were inserted into a pK18 vector which was used to transform E. coli J53 ([34]). Transconjugants were obtained with MBL genes carried on native wild-type plasmids conjugated into J53 ([35]). Both transformants and transconjugants were confirmed by DNA sequencing and verified for MBL production by using MTS MBL strips (Liofilchem, Roseto, Italy). […] MICs were determined using the broth microdilution method according to CLSI guidelines. Strains were cultured and tested in cation-adjusted Mueller-Hinton agar and broth (Becton Dickinson).

[2] = system: E. coli J53 + IMP-1 clone; test: MIC, broth microdilution; assay type: cell-based, Escherichia coli; details: captopril where added at 8 mg/liter
Text: (§2) The bacteria used were nonclonal international isolates whose mechanisms of carbapenem resistance have been defined genetically by sequencing. E. coli ATCC 25922 was used as a negative control. MBL genes were obtained by PCR using standard procedures and were inserted into a pK18 vector which was used to transform E. coli J53 ([34]). Transconjugants were obtained with MBL genes carried on native wild-type plasmids conjugated into J53 ([35]). Both transformants and transconjugants were confirmed by DNA sequencing and verified for MBL production by using MTS MBL strips (Liofilchem, Roseto, Italy). Additionally, 5 Escherichia coli (with NDM-1), 10 Klebsiella pneumoniae (5 with NDM-1, 3 with VIM-4, and 2 with IMP-4), 1 Serratia marcescens (with IMP-4), and 2 Pseudomonas aeruginosa (with VIM-2 and AIM-1) isolates and E. coli ATCC 25922 were used in the test panel. MICs were determined using the broth microdilution method according to CLSI guidelines. Strains were cultured and tested in cation-adjusted Mueller-Hinton agar and broth (Becton Dickinson).

[3] = system: E. coli J53 + NDM-1 clone; test: MIC, broth microdilution; assay type: cell-based, Escherichia coli; details: captopril where added at 8 mg/liter
Text: as §2

[4] = system: E. coli J53 + VIM-2 clone; test: MIC, broth microdilution; assay type: cell-based, Escherichia coli; details: captopril where added at 8 mg/liter
Text: as §2

[5] = system: E. coli J53 + VIM-2 transconjugant; test: MIC, broth microdilution; assay type: cell-based, Escherichia coli; details: captopril where added at 8 mg/liter
Text: as §2

[6] = molecular target: VIM-4 (Pseudomonas aeruginosa, UniProt Q8KRJ3); test: MBL inhibition assay, VIM-4; assay type: biochemical
Procedure: (§3) Recombinant forms of NDM-1, VIM-2, VIM-4, SPM-1, IMP-1, and BcII MBLs were produced in Escherichia coli as described previously ([27], [28]).
(§4) Kinetic and inhibition assays with the bacterial MBLs, human angiotensin-converting enzyme 2 (hACE-2), and hydroxyacylglutathione hydrolase, human glyoxylase II (hHAGH), were performed as described previously ([7], [27]).

[7] = molecular target: hydroxyacylglutathione hydrolase, human glyoxylase II (hHAGH) (Homo sapiens, UniProt Q16775); test: Inhibition assay, hHAGH; assay type: biochemical; details: at 100 μM, standard assay conditions
Procedure: as §4

[8] = molecular target: human angiotensin-converting enzyme 2 (hACE-2) (Homo sapiens, UniProt Q9BYF1); test: Inhibition assay, hACE-2; assay type: biochemical; details: at 100 μM, standard assay conditions
human angiotensin-converting enzyme 2 (hACE-2), sequence (Q9BYF1 18-805): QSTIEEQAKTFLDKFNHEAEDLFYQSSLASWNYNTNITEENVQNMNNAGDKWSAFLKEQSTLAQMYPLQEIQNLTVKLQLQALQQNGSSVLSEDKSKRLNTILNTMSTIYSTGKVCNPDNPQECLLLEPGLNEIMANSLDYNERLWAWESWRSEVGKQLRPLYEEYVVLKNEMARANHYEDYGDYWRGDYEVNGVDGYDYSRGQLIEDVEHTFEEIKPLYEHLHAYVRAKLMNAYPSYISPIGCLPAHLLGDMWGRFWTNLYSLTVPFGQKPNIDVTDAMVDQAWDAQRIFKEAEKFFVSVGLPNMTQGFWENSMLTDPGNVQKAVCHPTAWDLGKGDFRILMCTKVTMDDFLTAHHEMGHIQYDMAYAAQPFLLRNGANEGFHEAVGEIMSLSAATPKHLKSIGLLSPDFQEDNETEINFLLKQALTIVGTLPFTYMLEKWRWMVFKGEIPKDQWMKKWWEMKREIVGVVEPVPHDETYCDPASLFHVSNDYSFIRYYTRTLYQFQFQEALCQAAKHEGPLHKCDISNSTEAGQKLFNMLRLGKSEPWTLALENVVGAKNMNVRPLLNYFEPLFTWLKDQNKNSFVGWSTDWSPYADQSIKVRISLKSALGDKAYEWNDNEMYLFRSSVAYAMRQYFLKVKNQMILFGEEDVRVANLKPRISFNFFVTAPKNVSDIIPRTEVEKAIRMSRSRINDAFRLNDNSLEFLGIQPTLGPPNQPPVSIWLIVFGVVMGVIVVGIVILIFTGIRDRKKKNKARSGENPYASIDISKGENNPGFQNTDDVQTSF
Procedure: as §4

[9] = molecular target: T1, DCLRE1A (Homo sapiens, UniProt Q6PJP8); test: Nuclease assay, DCLRE1A; details: at 100 μM, standard assay conditions
T1 sequence (Q6PJP8 608-1040 limits assumed): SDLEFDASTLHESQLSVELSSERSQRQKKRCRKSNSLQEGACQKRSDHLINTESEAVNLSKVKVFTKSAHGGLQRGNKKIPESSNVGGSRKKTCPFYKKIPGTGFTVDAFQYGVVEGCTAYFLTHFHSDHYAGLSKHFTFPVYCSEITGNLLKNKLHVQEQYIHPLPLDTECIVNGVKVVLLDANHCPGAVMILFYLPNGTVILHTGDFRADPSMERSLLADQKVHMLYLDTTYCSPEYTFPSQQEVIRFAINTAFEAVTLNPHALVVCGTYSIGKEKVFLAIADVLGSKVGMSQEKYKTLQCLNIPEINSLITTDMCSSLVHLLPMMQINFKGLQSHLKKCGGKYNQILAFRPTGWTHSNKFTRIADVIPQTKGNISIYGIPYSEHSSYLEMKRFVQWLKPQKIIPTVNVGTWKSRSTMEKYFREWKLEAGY
Procedure: (§5) Nuclease assays with DCLRE1A and DCLRE1B (DNA cross-link repair enzymes 1A and 1B) ([33]) were performed according to a previously described method ([33]), employing a 21-nucleotide DNA oligonucleotide with a fluorescein label at its 3′ end. In brief, exonuclease activity was measured using ΔN-DCLRE1A (3.5 ng; 8 nM) or ΔC-DCLRE1B (1.5 ng; 4 nM) mixed with 1 pmol (1 μM) of 3′-fluorescein-labeled DNA substrate in 10 μl of 20 mM HEPES, pH 7.9, 50 mM KCl, 10 mM MgCl2, 0.5 mM dithiothreitol (DTT), 0.05% Triton-X, 0.1 mg/ml bovine serum albumin (BSA), and 5% glycerol.
(§6) [SNM1A] = [SNM1B] = 0.8 nM; [21nt fluor-ssDNA] = 1 µM, assay time = 20 mins

[10] = molecular target: T2, DCLRE1B (Homo sapiens, UniProt Q9H816); test: Nuclease assay, DCLRE1B; details: at 100 μM, standard assay conditions
T2 sequence (Q9H816 1-335 limits assumed): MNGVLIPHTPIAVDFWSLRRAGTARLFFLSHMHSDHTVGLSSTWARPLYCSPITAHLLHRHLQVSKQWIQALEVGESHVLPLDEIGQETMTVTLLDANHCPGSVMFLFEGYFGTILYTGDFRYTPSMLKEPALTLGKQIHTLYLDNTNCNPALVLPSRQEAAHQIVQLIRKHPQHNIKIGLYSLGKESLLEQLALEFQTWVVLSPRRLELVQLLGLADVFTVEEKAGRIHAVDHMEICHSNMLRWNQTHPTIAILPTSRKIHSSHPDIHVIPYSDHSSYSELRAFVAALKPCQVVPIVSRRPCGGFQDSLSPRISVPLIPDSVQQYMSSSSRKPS
Procedure: as §5, §6

[11] = molecular target: T3, VIM-2 (Escherichia coli, UniProt Q5U7L7); test: biochemical; details: means ± standard deviations, three or more experiments
T3 construct: made in house; host or cells: Escherichia coli
Procedure: as §3, §4

[12] = molecular target: T4, NDM-1 (Klebsiella pneumoniae, UniProt C7C422); test: biochemical
T4 construct: made in house; host or cells: Escherichia coli
T4 sequence (C7C422 29-270 limits assumed): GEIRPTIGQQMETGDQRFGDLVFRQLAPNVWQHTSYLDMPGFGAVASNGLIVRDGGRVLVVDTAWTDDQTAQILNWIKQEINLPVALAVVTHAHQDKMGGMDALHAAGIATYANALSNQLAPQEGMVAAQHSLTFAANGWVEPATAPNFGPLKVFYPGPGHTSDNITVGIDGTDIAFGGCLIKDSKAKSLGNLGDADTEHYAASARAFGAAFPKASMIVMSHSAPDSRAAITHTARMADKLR
Procedure: as §3, §4

[13] = molecular target: BcII (Bacillus cereus, UniProt P04190); test: MBL inhibition assay, BcII
BcII, sequence (P04190 31-257): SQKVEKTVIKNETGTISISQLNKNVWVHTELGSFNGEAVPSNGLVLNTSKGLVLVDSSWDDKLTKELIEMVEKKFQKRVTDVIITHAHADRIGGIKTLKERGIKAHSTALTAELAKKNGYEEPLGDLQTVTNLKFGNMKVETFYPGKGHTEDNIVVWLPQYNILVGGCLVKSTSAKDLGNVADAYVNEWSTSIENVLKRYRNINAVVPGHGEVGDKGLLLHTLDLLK
Procedure: as §3, §4

[14] = molecular target: IMP-1 (Serratia marcescens, UniProt P52699); test: MBL inhibition assay, IMP-1
IMP-1, sequence (P52699 19-246 limits assumed): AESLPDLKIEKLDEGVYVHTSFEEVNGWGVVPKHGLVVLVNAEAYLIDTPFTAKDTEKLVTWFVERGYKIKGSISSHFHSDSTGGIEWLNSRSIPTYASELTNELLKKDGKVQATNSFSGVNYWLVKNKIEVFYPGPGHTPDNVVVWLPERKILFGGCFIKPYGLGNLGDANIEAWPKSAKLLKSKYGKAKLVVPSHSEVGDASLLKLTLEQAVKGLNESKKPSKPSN
Procedure: as §3, §4

[15] = molecular target: SPM-1 (Pseudomonas aeruginosa, UniProt Q8G9Q0); test: MBL inhibition assay, SPM-1
SPM-1, sequence (Q8G9Q0 entry or part of it): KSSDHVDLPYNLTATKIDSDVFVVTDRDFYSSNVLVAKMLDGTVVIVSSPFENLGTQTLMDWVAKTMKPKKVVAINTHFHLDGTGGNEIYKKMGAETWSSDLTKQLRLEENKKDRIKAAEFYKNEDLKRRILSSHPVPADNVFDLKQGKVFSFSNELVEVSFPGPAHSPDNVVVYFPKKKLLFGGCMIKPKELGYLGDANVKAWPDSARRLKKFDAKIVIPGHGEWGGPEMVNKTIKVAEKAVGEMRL
Procedure: as §3, §4

[16] = molecular target: CphA; details: B2 MBL ref 18; cited from earlier work
[17] = molecular target: FEZ-1; design: method as in PMID 12507470; details: B3 MBL ref 23; cited from earlier work
[18] = system: E. coli 25922; test: MIC, broth microdilution; assay type: cell-based, Escherichia coli; details: E. coli 25922 (negative control); captopril where added at 8 mg/liter
Text: as §1

[19] = system: E. coli IR10 (NDM-1); test: MIC, broth microdilution; assay type: cell-based, Escherichia coli; details: captopril where added at 8 mg/liter
Text: as §2

[20] = system: E. coli IR15 (NDM-1); test: MIC, broth microdilution; assay type: cell-based, Escherichia coli; details: captopril where added at 8 mg/liter
Text: as §2

[21] = system: E. coli IR24 (NDM-1); test: MIC, broth microdilution; assay type: cell-based, Escherichia coli; details: captopril where added at 8 mg/liter
Text: as §2

[22] = system: K. pneumoniae A33 (VIM-4); test: MIC, broth microdilution; assay type: cell-based, Klebsiella pneumoniae; details: captopril where added at 8 mg/liter
Text: as §2

[23] = system: K. pneumoniae A34 (VIM-4); test: MIC, broth microdilution; assay type: cell-based, Klebsiella pneumoniae; details: captopril where added at 8 mg/liter
Text: as §2

[24] = system: K. pneumoniae A35 (VIM-4); test: MIC, broth microdilution; assay type: cell-based, Klebsiella pneumoniae; details: captopril where added at 8 mg/liter
Text: as §2

[25] = system: K. pneumoniae B12 (IMP-4); test: MIC, broth microdilution; assay type: cell-based, Klebsiella pneumoniae; details: captopril where added at 8 mg/liter
Text: as §2

[26] = system: K. pneumoniae B19 (IMP-4); test: MIC, broth microdilution; assay type: cell-based, Klebsiella pneumoniae; details: captopril where added at 8 mg/liter
Text: as §2

[27] = system: K. pneumoniae HR8 (NDM-1); test: MIC, broth microdilution; assay type: cell-based, Klebsiella pneumoniae; details: captopril where added at 8 mg/liter
Text: as §2

[28] = system: K. pneumoniae IR19 (NDM-1); test: MIC, broth microdilution; assay type: cell-based, Klebsiella pneumoniae; details: captopril where added at 8 mg/liter
Text: as §2

[29] = system: K. pneumoniae IR8 (NDM-1); test: MIC, broth microdilution; assay type: cell-based, Klebsiella pneumoniae; details: captopril where added at 8 mg/liter
Text: as §2

[30] = system: K. pneumoniae N16 (NDM-1); test: MIC, broth microdilution; assay type: cell-based, Klebsiella pneumoniae; details: captopril where added at 8 mg/liter
Text: as §2

[31] = system: S. marcescens B13 (IMP-4); test: MIC, broth microdilution; assay type: cell-based, Serratia marcescens; details: captopril where added at 8 mg/liter
Text: as §2

Row | SMILES | MIC [2] [µg/mL] | MIC [3] [µg/mL] | MIC [4] [µg/mL] | MIC [5] [µg/mL] | IC50 [6] [µM] | inhibition of hHAGH [7] | inhibition of hACE-2 [8] | inhibition of DCLRE1A [9] | inhibition of DCLRE1B [10] | also measured
1 | CC(C)(O/N=C(\C(=O)N[C@@H]1C(=O)N2C(C(=O)[O-])=C(C[n+]3ccccc3)CS[C@H]12)c1csc(N)n1)C(=O)O [CFZ, ceftazidime] | 128 (≈ 234 µM) | 512 (≈ 937 µM) | 32 (≈ 58.5 µM) | 32 (≈ 58.5 µM) |  |  |  |  |  | MIC [1]: 512 µg/mL (≈ 937 µM)
2 | C[C@H](CS)C(=O)N1CCC[C@H]1C(=O)O [L-Captopril, (2S)-1-[(2S)-2-Methyl-3-sulfanylpropanoyl] pyrrolidine-2-carboxylic acid] |  |  |  |  | 3.9 ± 0.5 | no inhibition | no inhibition | no inhibition | no inhibition | 
3 | O=C(O)C1CCCN1C(=O)c1ccccc1S [D-MBP, 1-(2-mercaptobenzoyl)pyrrolidine-2-carboxylic acid] |  |  |  |  |  | no inhibition | no inhibition | no inhibition | no inhibition | IC50 [11]: > 500 µM; IC50 [12]: > 500 µM; IC50 [13]: > 500 µM; IC50 [14]: > 500 µM; IC50 [15]: > 500 µM
4 | C[C@@H](CS)C(=O)N1CCC[C@H]1C(=O)O [D-Captopril, (2S)-1-[(2R)-2-methyl-3-sulfanylpropanoyl] pyrrolidine-2-carboxylic acid] |  |  |  |  | 1.7 ± 0.4 | no inhibition | no inhibition | no inhibition | no inhibition | Ki [16]: 72 µM; Ki [17]: 400 µM
5 | C[C@@H](O)[C@H]1C(=O)N2C(C(=O)O)=C(S[C@@H]3CN[C@H](C(=O)N(C)C)C3)[C@H](C)[C@H]12 [MEM, meropenem] | 1 (≈ 2.61 µM) | 64 (≈ 167 µM) | 8 (≈ 20.9 µM) | 2 (≈ 5.22 µM) |  |  |  |  |  | MIC [18]: < 0.125 µg/mL; MIC [19]: 64 µg/mL (≈ 167 µM); MIC [20]: 8 µg/mL (≈ 20.9 µM); MIC [21]: 512 µg/mL (≈ 1340 µM); MIC [22]: 8 µg/mL (≈ 20.9 µM); MIC [23]: 8 µg/mL (≈ 20.9 µM); MIC [24]: 16 µg/mL (≈ 41.7 µM); MIC [25]: 8 µg/mL (≈ 20.9 µM); MIC [26]: 32 µg/mL (≈ 83.4 µM); MIC [27]: 64 µg/mL (≈ 167 µM); MIC [28]: 8 µg/mL (≈ 20.9 µM); MIC [29]: 16 µg/mL (≈ 41.7 µM); MIC [30]: 32 µg/mL (≈ 83.4 µM); MIC [31]: 4 µg/mL (≈ 10.4 µM)
